Data: patent US5321030A, “Creatine analogs having antiviral activity” (priority 1991, dated 1994)
Converted amounts (≈) assume the structure as drawn. Read-outs that look alike come from different tables or passages of the source.

Tests used:
[1] = Cytotoxicity in plaque reduction assay, MRC-5 cells; type: cell-based, human; conditions: human, mrc-5 cells, read-out: CD50 (the source's name)
Procedure: (§1) Cytotoxicity was determined by examination of cells (located away from plaques) in infected wells which had been treated with drug.

[2] = Cytotoxicity in plaque reduction assay, CV-1 cells; type: cell-based, African Green Monkey; conditions: monkey, Table 9B, read-out: CD50 (the source's name)
[3] = system: Varicella-Zoster Virus, strain Oka; test: microbe, parasite or virus in culture; type: cell-based; parameters: TI50 (CD50 ÷ ED50): unit not given beside the values
[4] = system: HCMV, strain C8704 (DHPG resistant); test: microbe, parasite or virus in culture; type: cell-based, Human Cytomegalovirus; parameters: TI50 (CD50 ÷ ED50): unit not given beside the values; conditions: for # Plaques: virus control 91.0 ± 8.4
[5] = system: HCMV, strain C8805-37 (DHPG resistant); test: microbe, parasite or virus in culture; type: cell-based, Human Cytomegalovirus; parameters: TI50 (CD50 ÷ ED50): unit not given beside the values; conditions: for # Plaques: virus control 11.5 ± 2.1
in vitro = conditions: guinea pig, gpe cells
HCMV, strain AD-169 = test: Plaque reduction assay, HCMV strain AD-169; type: cell-based, Human Cytomegalovirus; parameters: TI50 (CD50 ÷ ED50): unit not given here; conditions: for EC50: read-out: ED50 (the source's name)
[6] = Cytotoxicity in plaque reduction assay, Hs68 cells; type: cell-based; conditions: human, Table 5, previous data, read-out: CD50 (the source's name)
Procedure: as §1

[7] = system: Guinea Pig Cytomegalovirus, Strain 22122; test: CPE reduction assay, guinea pig cytomegalovirus in GPE cells; type: cell-based; parameters: TI50 (CD50 ÷ ED50): unit not given here; conditions: for Average CPE: virus controls 4.0
[8] = Human alphaherpesvirus 3, CV-1, read-out: % Reduction
[9] = Human alphaherpesvirus 3, MRC5, read-out: % Reduction
[10] = Human betaherpesvirus 5, MRC5, DHPG 1.0 μg/ml, read-out: % Reduction
[11] = Human betaherpesvirus 5, MRC5, DHPG 3.2 μg/ml, read-out: % Reduction
[12] = Human betaherpesvirus 5, MRC5, DHPG 10 μg/ml, read-out: % Reduction
[13] = Human betaherpesvirus 5, MRC5, DHPG 32 μg/ml, read-out: % Reduction

SMILES: Nc1nc(O)c2ncn(COC(CO)CO)c2n1 [DHPG, dihydroxypropoxymethylguanine, reference compound]
- CC50 ([1]; Table 4): > 100 µg/mL
- CC50 ([1]; Table 6, previous data): > 1000 µg/mL
- CC50 ([1]; Table 7, previous data): > 1000 µg/mL
- CC50 ([1]; Table 9A, previous data): > 1000 µg/mL
- CC50 [2]: > 10 µg/mL
- # Plaques ([3]; CV-1 cells, DHPG 3.2 μg/ml, virus control 70.25 ± 6.9): 77
- # Plaques ([3]; CV-1 cells, DHPG 10 μg/ml, virus control 70.25 ± 6.9): 63
- inhibition at 3.2 µg/mL [3, 8]: 0%
- inhibition at 10 µg/mL [3, 8]: 10%
- EC50 ([3]; Human alphaherpesvirus 3, CV-1, read-out: ED50): > 10 µg/mL
- inhibition at 0.32 µg/mL [3, 9]: 0%
- inhibition at 1 µg/mL [3, 9]: 0%
- inhibition at 3.2 µg/mL [3, 9]: 0%
- inhibition at 10 µg/mL [3, 9]: 62%
- EC50 ([3]; Human alphaherpesvirus 3, MRC5, read-out: ED50): 8 µg/mL (≈ 31.3 µM)
- TI50 (CD50 ÷ ED50) ([3]; MRC-5 cells, Table 9A): > 125
- # Plaques ([3]; MRC-5 cells, DHPG 0.32 μg/ml, virus control 32.7 ± 9.3): 24.5
- # Plaques ([3]; MRC-5 cells, DHPG 1.0 μg/ml, virus control 32.7 ± 9.3): 37
- # Plaques ([3]; MRC-5 cells, DHPG 3.2 μg/ml, virus control 32.7 ± 9.3): 25
- # Plaques ([3]; MRC-5 cells, DHPG 10 μg/ml, virus control 32.7 ± 9.3): 12.5
- # Plaques ([4]; DHPG 1.0 μg/ml): 92.5
- # Plaques ([4]; DHPG 3.2 μg/ml): 85
- # Plaques ([4]; DHPG 10 μg/ml): 80
- # Plaques ([4]; DHPG 32 μg/ml): 91
- inhibition at 1 µg/mL [4, 10]: 0%
- inhibition at 3.2 µg/mL [4, 11]: 0%
- inhibition at 10 µg/mL [4, 12]: 0%
- inhibition at 32 µg/mL [4, 13]: 41%
- EC50 ([4]; Human betaherpesvirus 5, MRC5, MRC-5 cells, Table 6, read-out: ED50 (the source's name)): > 32 µg/mL
- EC50 ([4]; Human betaherpesvirus 5, MRC5, MRC-5 cells, Table 6, read-out: ED50, approximate value in parentheses): ~41 µg/mL (≈ 161 µM)
- TI50 (CD50 ÷ ED50) ([4]; MRC-5 cells, Table 6): > 24
- # Plaques ([5]; DHPG 1.0 μg/ml): 13
- # Plaques ([5]; DHPG 3.2 μg/ml): 6.5
- # Plaques ([5]; DHPG 10 μg/ml): 10
- # Plaques ([5]; DHPG 32 μg/ml): 4.5
- inhibition at 1 µg/mL [5, 10]: 0%
- inhibition at 3.2 µg/mL [5, 11]: 43%
- inhibition at 10 µg/mL [5, 12]: 0%
- inhibition at 32 µg/mL [5, 13]: 61%
- EC50 ([5]; Human betaherpesvirus 5, MRC5, MRC-5 cells, Table 7, read-out: ED50 (the source's name)): 11 µg/mL (≈ 43.1 µM)
- TI50 (CD50 ÷ ED50) ([5]; MRC-5 cells, Table 7): > 91
- CC50 (in vitro): > 1000 µg/mL
- TI50 (CD50 ÷ ED50) (HCMV, strain AD-169; Hs-68 cells, Table 5): > 526
- # Plaques (HCMV, strain AD-169; Hs-68 cells, DHPG 1.0 μg/ml, virus control 74.2 ± 8.6): 68.5
- # Plaques (HCMV, strain AD-169; Hs-68 cells, DHPG 3.2 μg/ml, virus control 74.2 ± 8.6): 7
- # Plaques (HCMV, strain AD-169; Hs-68 cells, DHPG .32 μg/ml, virus control 74.2 ± 8.6): 100.5
- EC50 (HCMV, strain AD-169; Human betaherpesvirus 5, AD169, Hs68, Hs-68 cells, Table 5): 1.9 µg/mL (≈ 7.44 µM)
- EC50 (HCMV, strain AD-169; Human betaherpesvirus 5, AD169, MRC5, MRC-5 cells, Table 4): 3.7 µg/mL (≈ 14.5 µM)
- TI50 (CD50 ÷ ED50) (HCMV, strain AD-169; MRC-5 cells, Table 4): > 27
- # Plaques (HCMV, strain AD-169; MRC-5 cells, DHPG 3.2 μg/ml, virus control 26.4 ± 5.2): 15
- # Plaques (HCMV, strain AD-169; MRC-5 cells, DHPG 10 μg/ml, virus control 26.4 ± 5.2): 0.5
- # Plaques (HCMV, strain AD-169; MRC-5 cells, DHPG 32 μg/ml, virus control 26.4 ± 5.2): 0
- # Plaques (HCMV, strain AD-169; MRC-5 cells, DHPG 100 μg/ml, virus control 26.4 ± 5.2): 0
- CC50 [6]: > 1000 µg/mL
- EC50 ([7]; Caviid betaherpesvirus 2, GPE cells, Table 3, read-out: ED50 (the source's name)): 18.4 µg/mL (≈ 72.1 µM)
- Average CPE ([7]; DHPG 1.0 μg/ml): 4.0
- Average CPE ([7]; DHPG 3.2 μg/ml): 4.0
- Average CPE ([7]; DHPG 10 μg/ml): 3.5
- Average CPE ([7]; DHPG 32 μg/ml): 0.7
- Average CPE ([7]; DHPG 100 μg/ml): 0
- Average CPE ([7]; DHPG 320 μg/ml): 0
- Average CPE ([7]; DHPG 1000 μg/ml): 0
- TI50 (CD50 ÷ ED50) ([7]; GPE cells, Table 3): > 54
